Laboratory results from patent publication US20090298903A1, “USE OF TETRAMIC ACID DERIVATIVES FOR INSECT CONTROL” (priority 2006, published 2009).

Assays:
Type in all cases: in vivo
[1] = system: Lygus spinolai; assay: Example 1A: field test on tea plants against Lygus spinolai; settings: nymphs on shoots, Imidacloprid (10 WP) 0.005 % a.s., (I-4) (150 OD) 0.01 % a.s.; for Efficacy (% Abbott) 15 d: 15 d after treatment; for Efficacy (% Abbott) 29 d: 29 d after treatment
Method: Plots approximately 4 m^2 in size which are planted with tea plants c.v. “Yabukita” are treated, in 3 replications, against Lygus spinolai. Here, the active substance Example (I-4) (150 OD) is tested at the specified application rate against the commercial standard Imidacloprid (10 WP) at the specified application rate. The application is effected with an engine-driven knapsack sprayer. Here, the treatment is carried out with a water application rate of 10 000 l/ha.
The test is evaluated 15 and 29 days after the treatment by determining the destruction of the nymphs on the shoots.

[2] = system: Thrips palmi; assay: Example 9: cucumbers against Thrips palmi; settings: for Efficacy (% Abbott) 3 d: 3 d after treatment 1, nymphs on leaves, Imidacloprid (100 SL) 100, (I-4) (240 SC + 0.2% rapeseed oil methyl ester) 72 g a.s./ha, two applications, interval 8 days; for Efficacy (% Abbott) 8 d: 8 d after treatment 1, Imidacloprid 100, (I-4) 72 g a.s./ha; for Efficacy (% Abbott) 11 d: 11 d after treatment 1, Imidacloprid 100, (I-4) 72 g a.s./ha; for Efficacy (% Abbott) 15 d: 15 d after treatment 1, Imidacloprid 100, (I-4) 72 g a.s./ha
Method: Plots approximately 10 m^2 in size which are planted with cucumbers are treated, in three replications, against Thrips palmi. The application is carried out with a knapsack sprayer which is operated with pressurized air. Here, the active substance Example (I-4) (240 SC), in a tank mix with 0.2% a.s. rapeseed oil methyl ester (500 EW) and the commercial standard Imidacloprid (100 SL), is applied at the specified application rates. The application is carried out with a water application rate of […]. Two applications are carried out at an interval of 8 days.
The test is evaluated 3, 8, 11 and 15 days after treatment 1 by scoring the destruction rate of the animals (nymphs) on the leaves.

[3] = system: Dalbulus maidis; assay: Example 13: dwarf beans against Dalbulus maidis; settings: nymphs on leaves, all 96 g a.s./ha; for Efficacy (% Abbott) 7 d: 7 d after second treatment, 240 SC + 0.1% rapeseed oil methyl ester, Imidacloprid 200 SL; for Efficacy (% Abbott) 11 d: 11 d after second treatment
Method: Plots approx. 10 m^2 in size which are planted with dwarf beans cv. “Carioquinha” are treated, in three replications, against Dalbulus maidis. The application is carried out with a knapsack sprayer which is operated with pressurized air. Here, the active substances Example (I-4) (240 SC) and Example (I-9) (240 SC), in a tank mix with 0.1% a.s. rapeseed oil methyl ester (500 EW) and the commercial standard Imidacloprid (200 SL), are applied at the specified application rates. Two applications are carried out at an interval of 7 days, using a water application rate of 300 l/ha.
The test is evaluated 7 and 11 days after the second treatment by scoring the destruction rate of the animals (nymphs) on the leaves.

[4] = system: Idioscopus clypealis; assay: Example 14: mango tree against Idioscopus clypealis; settings: nymphs on infructescences; for Efficacy (% Abbott) 7 days after treatment 4 / Efficacy (% Abbott) 7 days after treatment 5: Imidacloprid 0.00025 %, (I-4) 0.0016 %, Pymetrozine 0.002 %; for Efficacy (% Abbott) 7 days after treatment 3: Imidacloprid (100 SL) 0.00025 %, (I-4) (240 SC + 0.2% rapeseed oil methyl ester) 0.0016 %, Pymetrozine (WP 25) 0.002 %
Method: A mango tree which is approximately 14 years old is treated, in three replications, against Idioscopus clypealis. The application is carried out with a high-pressure sprayer. Here, the active substance Example (I-4) (240 SC), in a tank mix with 0.2% a.s. rapeseed oil methyl ester (500 EW) and the commercial standards Imidacloprid (100 SL) and Pymetrozine (WP 25), is tested at the specified application rates. The amount of spray mixture is 10 l/tree. Five treatments are carried out at intervals of 7, 14, 21 and 28 days.
The test is evaluated in each case 7 days after treatments 3 to 5 by scoring the destruction rate of the nymphs on the infructescences.

[5] = system: Empoasca biguttula; assay: Example 16: aubergines against Empoasca biguttula; settings: for Efficacy (% Abott) 2 d: 2 d after first treatment, nymphs, Imidacloprid (SL 100) 30, (I-4) (150 OD) 50, Profenofos (500 EC) 500 g a.s./ha, two applications, interval 7 days; for Efficacy (% Abott) 6 d: 6 d after first treatment; for Efficacy (% Abott) 6 d / Efficacy (% Abott) 13 d: Imidacloprid 30, (I-4) 50, Profenofos 500 g a.s./ha; for Efficacy (% Abott) 13 d: 13 d after first treatment
Method: Plots 10 m^2 in size which are planted with aubergines are treated, in three replications, against Empoasca biguttula. The application is carried out with a knapsack sprayer which is operated with pressurized air. Here, the active substance Example (I-4) (150 OD) is tested against the commercial standards Imidacloprid (SL 100) and Profenofos (500 EC) at the specified application rates. Two applications are carried out at an interval of 7 days. The water application rate is 750 l/ha.
The test is evaluated 2, 6 and 13 days after the first treatment by scoring the destruction rates of the animals (nymphs) on the plants.

[6] = system: olive fruit fly (Dacus oleae); assay: Example 22B: laboratory experiment, olives against olive fruit fly; settings: olives treated three days after oviposition; Imidacloprid (200 SL) 0.01 %, (I-4) (100 OD) 0.02 %, Fenthion (500 EC) 0.05 %; untreated 84.4
Method: In a laboratory experiment, 40 olives are treated, in four replications, against the olive fruit fly (Dacus oleae) three days after oviposition. Here, the active substance (I-4) (100 OD) and the commercial standards Fenthion (500 EC) and Imidacloprid (200 SL) are tested at the specified application rates.
The test is evaluated 14 days after oviposition by counting the number of feeding tunnels (larval development completed), while the absence of such feeding tunnels indicates the efficacy against the larvae.

[7] = system: Phyllocnistis citrella; assay: Example 27: orange trees against Phyllocnistis citrella; settings: larvae on shoots; for Efficacy (% Abbott) 7 d: 7 d after treatment, Imidacloprid (192 SC) 140, (I-4) (150 OD) 132 g a.s./ha; for Efficacy (% Abbott) 14 d: 14 d after treatment, Imidacloprid 140, (I-4) 132 g a.s./ha
Method: Small orange trees on plots approximately 30 m^2 in size are treated, in four replications, against Phyllocnistis citrella. The application is carried out with a motor-operated knapsack sprayer. Here, the active substance Example (I-4) (150 OD) is tested against the commercial standard Imidacloprid (192 SC) at the specified rates. The water application rate is 935 l/ha.
The test is evaluated 7 and 14 days after the treatment by scoring the destruction rates of the larvae on the shoots in percent.

Compound	Efficacy (% Abbott) 15 d [1] [% Abbott]	Efficacy (% Abbott) 29 d [1] [% Abbott]	Efficacy (% Abbott) 3 d [2] [% Abbott]	Efficacy (% Abbott) 8 d [2] [% Abbott]	Efficacy (% Abbott) 11 d [2] [% Abbott]	Efficacy (% Abbott) 15 d [2] [% Abbott]	Efficacy (% Abbott) 7 d [3] [% Abbott]	Efficacy (% Abbott) 11 d [3] [% Abbott]	Efficacy (% Abbott) 7 days after treatment 4 [4] [% Abbott]	Efficacy (% Abbott) 7 days after treatment 5 [4] [% Abbott]	Efficacy (% Abbott) 7 days after treatment 3 [4] [% Abbott]	Efficacy (% Abott) 2 d [5] [% Abott]	Efficacy (% Abott) 6 d [5] [% Abott]	Efficacy (% Abott) 13 d [5] [% Abott]	Number of feeding tunnels (%) 14 days after oviposition [6] [%]	Efficacy (% Abbott) 7 d [7] [% Abbott]	Efficacy (% Abbott) 14 d [7] [% Abbott]
CCOC(=O)OC1=C(c2cc(C)ccc2C)C(=O)N[C@]12CC[C@@H](OC)CC2 [Example (I-4)]	92.9	100	64.5	91.0	80.4	70.1	73	69	98.1	99.4	54.7	52.4	56.0	66.7	3.1	97.9	68.2
O=[N+]([O-])NC1=NCCN1Cc1ccc(Cl)nc1 [Imidacloprid]	35.7	48.1	85.3	85.5	91.7	77.1	82	74	82.2	86.4	69.1	38.1	71.6	58.7	11.9	91.7	52.3
